Data taken from patent US6569866B2, “Sustained-release nalmefene preparations and method” (priority 1996, dated 2003).

Columns and labels:
[1] = Expected serum concentration after intranasal nalmefene spray (10 mg/ml solution, 0.1 ml per spray); format: in vivo, human
Protocol: A tartrate, stearate or palmitate formulation of nalmefene may be used, or nalmefene may be in the form of nalmefene hydrochloride, and formulated such that 1 gram of active nalmefene is mixed with 80 ml of distilled water, then adjusted to a pH of approximately 7.4 with dilute sodium hydroxide, and then isotonic saline is added along with a suitable preservative and antibacterial agent, to yield a total volume of 100 ml. This yields a nalmefene solution with a concentration of 10 mg/ml nalmefene. This final solution is passed through a 0.2 micron Millipor filter to remove bacteria and other undesired particles. The filtered solution is then placed aseptically into a container to which is then attached a metered dosing mechanism which allows approximately 0.1 ml to be delivered in each spray. An example of such a metered dosing system in found with the commercially marketed Stadol NS® (Bristol-Myers Squibb Co.). One spray to one nostril may be expected to yield a blood serum concentration of approximately 1 ng/ml 30-90 minutes after administration. […] Alternatively, the human may be given a loading dose of intravenous nalmefene and then transferred to a nasal administration regimen. A practical dosing schedule for nalmefene may be 1.5 mg intranasally every 12 hours. […]

[2] = cited from earlier work
kappa-receptor = kappa-receptor (Homo sapiens, UniProt P41145); conditions: Kreek et al.; cited from earlier work
[3] = target: intraspinal kappa receptors (Rattus norvegicus, UniProt P34975); conditions: after spinal cord injury; Bakshi et al.; cited from earlier work
[4] = single dose after acute spinal cord injury; Behrmann et al.; cited from earlier work
[5] = per os administration; cited from earlier work

Sequence of intraspinal kappa receptors (P34975 whole entry): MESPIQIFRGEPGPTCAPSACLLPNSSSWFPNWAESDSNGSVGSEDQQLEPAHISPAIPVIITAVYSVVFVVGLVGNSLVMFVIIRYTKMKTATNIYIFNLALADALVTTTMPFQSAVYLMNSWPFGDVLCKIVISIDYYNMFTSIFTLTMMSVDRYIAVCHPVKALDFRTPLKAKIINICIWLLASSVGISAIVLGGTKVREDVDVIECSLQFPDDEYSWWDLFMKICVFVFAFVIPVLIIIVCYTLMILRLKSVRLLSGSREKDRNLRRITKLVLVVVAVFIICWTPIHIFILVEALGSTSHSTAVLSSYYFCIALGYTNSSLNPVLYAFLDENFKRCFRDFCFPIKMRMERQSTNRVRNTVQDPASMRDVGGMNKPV
Sequence of kappa-receptor (P41145 whole entry): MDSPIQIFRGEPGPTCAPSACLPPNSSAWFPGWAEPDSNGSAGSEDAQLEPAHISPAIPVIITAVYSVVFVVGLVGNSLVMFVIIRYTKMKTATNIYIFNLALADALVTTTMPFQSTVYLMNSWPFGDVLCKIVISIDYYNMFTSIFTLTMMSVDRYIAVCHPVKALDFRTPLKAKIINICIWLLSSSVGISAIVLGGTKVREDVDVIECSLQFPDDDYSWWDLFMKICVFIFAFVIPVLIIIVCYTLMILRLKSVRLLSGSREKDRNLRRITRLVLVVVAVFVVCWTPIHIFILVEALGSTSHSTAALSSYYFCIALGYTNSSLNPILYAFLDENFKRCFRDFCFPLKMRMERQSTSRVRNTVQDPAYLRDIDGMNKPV

For `C=C1CC[C@@]2(O)[C@H]3Cc4ccc(O)c5c4[C@@]2(CCN3CC2CC2)[C@H]1O5` [nalmefene], the “steady state serum concentration” value ([1]; 5 consecutive 1 mg intranasal doses approximately 11 hours apart) is given as “approximately 1 ng/ml”, the “blood serum concentration after one spray” value ([1]; one 0.1 ml spray of 10 mg/ml solution to one nostril, 30-90 minutes after administration) is given as “approximately 1 ng/ml” and the “average volume of distribution (Vd)” value ([2]; approximate average in non-elderly adult humans) is given as ~8.6 L/kg. The serum half life ([2]; in vivo) was “approximately 10.8 hours”, the “elimination constant (Ke)” value ([2]; value furnished by a distributor of nalmefene) was 0.0642 h⁻¹ and the “potency as kappa-receptor antagonist compared with other antagonists” value (kappa-receptor) was “more potent than either naloxone or naltrexone”. For the same compound, the “effect on dynorphin induced motor dysfunction” value [3] was “limits dynorphin induced motor dysfunction”, the “effect on neurological recovery / neuroprotection” value [4] was “significant neuroprotective effect” and the first pass metabolism [5] was “very significant first pass metabolism”.

In the case of `O=C1CC[C@@]2(O)[C@H]3Cc4ccc(O)c5c4[C@@]2(CCN3CC2CC2)[C@H]1O5` [naltrexone], the first pass metabolism [5] is listed as “very significant first pass metabolism”.
